One data set concerns RBCs. Nature of the data set: Levitation of RBCs after photolysis of caged ATP. The format is cell-based. The conditions noted are these: extracellular ATP 0 to close to 10 mM after photolysis, 40 mM Gd+, FIG. 4c. An excerpt:
Consistent with this possibility that UV-induced ROS increased the paramagnetic signature of RBCs, in areas with increased cell density, RBCs formed distinct aggregates, shown as the red circle in FIG. 4b, likely due to weak paramagnetic attraction between ROS-containing RBCs. To test this hypothesis, a burst of extracellular ATP to dissociate 2-3 DPG (2,3-diphosphoglycerate) from hemoglobin was used, a process that also transitions RBCs from diamagnetic to weak paramagnetic cells. Isolated RBCs were washed and resuspended in HBSS^++ containing 40 mM Gd+ and 10 mM caged ATP (Life Technologies). RBCs were loaded into the capillary, placed between the magnets, and allowed to focus. Next, a region of 60×900 μm located about 70 μm above the levitating RBCs was selected and illuminated by a […] for 1 second at 100% intensity. The un-caged ATP, released into the suspension increased the extracellular concentration of ATP from 0 to nearly 10 mM. Cells were recorded using Slidebook 5.5. Following photolysis, caged-ATP became ATP, effectively increasing the concentration of biologically-active, extracellular ATP from 0 to close to 10 mM. […]

In another data set the test system is human PMNs. The experiment in a line: Static levitation of activated and GSH-treated PMNs. The format is cell-based. How it is done: Freshly isolated PMNs were activated by incubating them either with buffer (resting PMN), GSH-ME (GSH-treated PMN), or 10 nM PMA (activated PMN) for 5 minutes, washing twice, mixing, and resuspending them in 35 mM Gd+ solution. Prior to treatments, cells were labeled either with Cell Tracker Green (activated PMN) or Cell Mask Deep Red (GSH-treated PMN).
The response of human PMNs during the activation phase of phagocytosis was studied by incubating PMNs with phorbol 12-myristate 13-acetate (PMA, 10 nM) for 10 minutes. As a control, PMNs were left in buffer for 10 minutes. Cells were then washed, fluorescently labeled, mixed together, and loaded into the magnetic levitation setup.
[formula] […] The same samples were simultaneously examined by flow cytometry for changes in forward and side-scatter properties of PMNs associated with PMA activation, shown in FIG. 3d.
To further understand the effect of intracellular ROS on the final position of levitating cells, cell permeable glutathione (GSH), an ROS scavenger was used.

A further data set relates to MDA breast cancer cells. How it is done: FIG. 12b details the real-time observation of a HCl-applied single cell in which a viability assay was also conducted using Calcein (green fluorescent) for live cell and Propidium Iodine (red fluorescent) for dead cell. Fluorescent images and bright field images were overlapped each other to compose the micrographs at different time point.

Another data set has as its system E. coli. The experiment in a line: Magnetic levitation profile of E. coli after antibiotic treatment. The format is cell-based. To be noted: for change of levitation heights and cellular magnetic profiles versus untreated control: E. coli treated two hours, 1 mg/mL, FIG. 21. An excerpt: As the bacteria respond to the stimuli and antibiotics, their density are altered. This directly reflects on their levitation heights.
With forward reference to FIG. 21, differences are illustrated in the observed magnetic levitation profiles of E. coli cells after different types of antibiotic treatment. […] The magnetic levitation profile of each of these antibiotics are compared to a control (i.e., untreated E. coli cells) in FIGS. 21a, 21b, and 21c, respectively.
(§1) In the examples above, to load samples into a microcapillary tube, microcapillaries were simply dipped into the sample vials, and sample filled into the capillary due to capillary forces. For each experiment, new microcapillary was used. Further, unless otherwise stated, cells were resuspended in 200 μL of 40 mM Gadolinium solution and loaded in 1.0×1.0 mm square microcapillary tubes (wall thickness 0.2 mm) by superficial tension action. Critoseal™ was inserted into either end of the microcapillary to prevent cells from drifting during analysis. The capillary was then loaded into a slot between the magnets and cells were imaged using either QImaging Emc^2 EMCCD camera on an Olympus BX62 microscope or a Qimaging EXi CCD camera on a Zeiss Axioscope microscope. For high-resolution images, a fluorescence microscope leveled on its side was perfectly horizontally placed, and used a mirror-free magnetic levitation setup. The images were analyzed with Slidebook 5.5. (3i, Denver, CO), ImageProPlus 7 (Media Cybernetics, Rockville, MD), and iVison 4.7 (Biovision, Exton PA).

The test system of data set [1] is multi-drug resistant E. coli. Nature of the data set: Magnetic levitation profile of multi-drug resistant E. coli after antibiotic treatment. The format is cell-based. To be noted: multi-drug resistant E. coli clinical isolate, 1 mg/mL, two hours, FIG. 22. As to the method: as §1
Data set [2] relates to multi-drug resistant E. coli. The conditions noted are these: cited from earlier work.
The next data set deals with yeast cells. Nature of the data set: Viability and magnetic levitation of yeast cells after drug treatment. The format is cell-based. The conditions noted are these: for levitation heights, magnetic properties and intrinsic magnetic signatures of yeast cells: 100 μM for 24 hours, 15 minutes of magnetic levitation, FIG. 14b; for viability of yeast cells (optical density): 100 μM, 24 hours, FIG. 14a. How it is done:
Looking at FIG. 14, the magnetic levitation and characteristics of yeast cells are illustrated that have either not been exposed or have been exposed to various drug treatments for some duration of time. FIG. 14a graphs the viability of yeast cells after different drug treatments (i.e., no drug treatment/control, 100 μM cantharidin, or 100 μM fluconazole) for 24 hours. […] FIG. 14b provides micrographs illustrating how, after 15 minutes of magnetic levitation, the levitation heights, magnetic properties and intrinsic magnetic signatures of yeast cells are altered after drug treatment with 100 μM cantharidin and 100 μM fluconazole for 24 hours.
Turning now to FIG. 15, this figure provides data relating to the observed drug responses and observed changes in magnetic profile of cells. […] FIG. 15d provides various micrographs of cells treated with different concentration of drug (fluconazole), the treatment concentration being listed above each micrograph. […] It is further noted that these changes can be monitored with the magnetic levitation system at the single-cell level.
as §1

The test system of a further data set is sickle RBCs. Nature of the data set: Levitation of healthy and sickle RBCs after sodium metabisulfite-induced dehydration. The format is cell-based, human. To be noted: 10 μM for 10 minutes at room temperature, images after 10 minutes of levitation. How it is done: RBCs isolated from healthy and sickle cell disease patients were washed three times and incubated with 10 μM sodium metabisulfite for 10 minutes at room temperature. Cells were levitated as described above and images were recorded after 10 minutes. To increase the contrast of the cells against the background, images were filtered using an edge detection algorithm (Roberts).

Where a name gives a salt, the structure may show the parent alone.

Consider `Nc1ncnc2c1ncn2[C@@H]1O[C@H](COP(=O)(O)OP(=O)(O)OP(=O)(O)O)[C@@H](O)[C@H]1O` [ATP], for which the “changes in magnetic properties and levitation of RBCs” value in the data set on RBCs was “loss of levitation”.

For `CCOC(=O)CNC(=O)[C@H](CS)NC(=O)CC[C@H](N)C(=O)O` [GSH, Glutathione reduced ethyl ester], the “final levitation position of treated PMNs” value in the data set on human PMNs (35 mM Gd+ solution, FIG. 3e) is listed as “equilibrated closer to resting PMNs”.

Turning to `Cl` [HCl, hydrochloric acid], the “levitation height z of treated cells (bottom of the channel)” value in the data set on MDA breast cancer cells (40 minutes of exposure to 100 mM HCl, FIG. 12a) is −500 μm. The “viability assay (Calcein / Propidium Iodine) of a single cell” value with MDA breast cancer cells (HCl-applied single cell, over 700 seconds, FIG. 12b) was “dying cell”.

In the case of `CCCCCCCCCCCCCC(=O)O[C@@H]1[C@@H](C)[C@@]2(O)[C@@H](C=C(CO)C[C@]3(O)C(=O)C(C)=C[C@@H]23)[C@@H]2C(C)(C)[C@]12OC(C)=O` [PMA, phorbol 12-myristate 13-acetate], in the data set on human PMNs (10 nM for 10 minutes, FIG. 3a), the “size, shape, optical density, magnetic and mass density signatures versus control PMNs” value is “distinct differences”. Besides, in the data set with human PMNs (PMA-activated PMNs, FIG. 3c), the “roundness of cells versus buffer-treated PMNs” value is “significant difference”.

On to `CC1(C)S[C@@H]2[C@H](NC(=O)[C@H](N)c3ccccc3)C(=O)N2[C@H]1C(=O)O` [ampicillin], for which the “change of levitation heights and cellular magnetic profiles versus untreated control” value in the data set with E. coli was “change the levitation heights and cellular magnetic profiles in a different manner”. Besides, in the data set on E. coli (E. coli, FIG. 13), the “differences between untreated and treated bacteria in magnetic levitation heights” value is listed as “significant differences”. Besides, in data set [1], the “change in levitation heights and magnetic levitation profiles” value is listed as “no significant change”. In data set [2], the “resistance or susceptibility of the clinical isolate” value is reported as “resistant”.

For the compound `C[C@@]12C(=O)OC(=O)[C@]1(C)[C@H]1CC[C@@H]2O1` [cantharidin], in the data set with yeast cells, the “levitation heights, magnetic properties and intrinsic magnetic signatures of yeast cells” value is on record as “altered”; the “viability of yeast cells (optical density)” value is on record as “Different viabilities are observed”.

In the case of `O=C(O)c1cn(C2CC2)c2cc(N3CCNCC3)c(F)cc2c1=O` [ciprofloxacin], the “change of levitation heights and cellular magnetic profiles versus untreated control” value in the data set with E. coli was “change the levitation heights and cellular magnetic profiles in a different manner”.

Regarding `OC(Cn1cncn1)(Cn1cncn1)c1ccc(F)cc1F` [fluconazole], in the data set with yeast cells, the “levitation heights, magnetic properties and intrinsic magnetic signatures of yeast cells” value is on record as “altered”; the “viability of yeast cells (optical density)” value is given as “Different viabilities are observed”. Also, the “cellular magnetic profiles and single-cell densities” value in the data set with yeast cells (25, 50 or 100 μM, FIG. 15) was “cellular magnetic profiles and densities change”.

`O=S([O-])S(=O)(=O)[O-].[Na+].[Na+]` [sodium metabisulfite]: the “density of a subpopulation of sickle RBCs after treatment” value in the data set with sickle RBCs was “significantly denser than healthy RBCs”.

For the compound gentamicin, the “change of levitation heights and cellular magnetic profiles versus untreated control” value in the data set on E. coli was “change the levitation heights and cellular magnetic profiles in a different manner”. For the same compound, the “change in levitation heights and magnetic levitation profiles” value in data set [1] is “noticeable change”. In addition, the “resistance or susceptibility of the clinical isolate” value in data set [2] is “susceptible”.

The record behind these values is patent US12066445B2, “System and method for cell levitation and monitoring” (THE BRIGHAM AND WOMEN'S HOSPITAL, INC., priority 2014, dated 2024).
